The record followed here is ChEMBL document CHEMBL1127138, “2-substituted penems, new candidates for cephalosporinase inhibitors” (Bioorg Med Chem Lett, 1993).

Test [1] has as its target TEM-1 beta-lactamase (Escherichia coli) (UniProt P62593). The test can be described thus: Tested for the inhibitory activity against beta-lactamase type TEM-1 at dose of 0.66 ug/mL using substrate ampicillin (ABPC); (TEM-1 enzyme activity is 1.6328 U/mL).
Test [2] concerns the target Beta-lactamase (Enterobacter cloacae) (UniProt P05364). Briefly: Tested for the inhibitory activity against beta-lactamase, Enterobacter cloacae at dose of 0.66 ug/mL using substrate cephaloridine (CER); (E. Cloacae enzyme activity is 1.1517 U/ml).
The target is the same in test [3]. Briefly: Tested for the inhibitory activity against beta-lactamase, Enterobacter cloacae at dose of 0.66 ug/mL using substrate cephaloridine (CER).
Test [4] deals with Beta-lactamase (Pseudomonas aeruginosa (strain ATCC 15692 / PAO1 / 1C / PRS 101 / LMG12228)) (UniProt P24735). Briefly: Tested for the inhibitory activity against beta-lactamase, Pseudomonas aeruginosa at dose of 0.66 ug/mL using substrate cephaloridine (CER); (P. Aeruginosa enzyme activity is 1.0352 U/ml).
Test [5] can be described thus: Tested for the inhibitory activity against beta-lactamase type CTX-1 at dose of 0.66 ug/mL using substrate cephaloridine (CER); (CTX-1 enzyme activity is 0.7363 U/ml).
Test [6] concerns the target Beta-lactamase (Enterobacter cloacae) (UniProt P05364). Briefly: Tested for the inhibitory activity against beta-lactamase, Enterobacter cloacae at dose of 10 ug/mL using substrate cephaloridine (CER); (E. Cloacae enzyme activity is 1.1517 U/ml).
Test [7] is described as follows: Tested for the inhibitory activity against beta-lactamase type CTX-1 at dose of 10 ug/mL using substrate cephaloridine (CER); (CTX-1 enzyme activity is 0.7363 U/ml).
Test [8] has as its target TEM-1 beta-lactamase (Escherichia coli) (UniProt P62593). The test can be described thus: Tested for the inhibitory activity against beta-lactamase type TEM-1 at dose of 10 ug/mL using substrate ampicillin (ABPC).
The target is the same in test [9]. Briefly: Tested for the inhibitory activity against beta-lactamase type TEM-1 at dose of 0.1 ug/mL using substrate ampicillin (ABPC); (TEM-1 enzyme activity is 1.6328 U/mL).
Test [10] addresses Beta-lactamase (Pseudomonas aeruginosa (strain ATCC 15692 / PAO1 / 1C / PRS 101 / LMG12228)) (UniProt P24735). The test can be described thus: Tested for the inhibitory activity against beta-lactamase, Pseudomonas aeruginosa at dose of 10 ug/mL using substrate cephaloridine (CER); (P. Aeruginosa enzyme activity is 1.0352 U/ml).
Test [11] deals with Beta-lactamase (Enterobacter cloacae) (UniProt P05364). The test can be described thus: Tested for the inhibitory activity against beta-lactamase, Enterobacter cloacae at dose of 0.1 ug/mL using substrate cephaloridine (CER).

The structures appear in SMILES notation.

Beta-lactamase (Enterobacter cloacae), sequence (P05364 21-381 limits assumed): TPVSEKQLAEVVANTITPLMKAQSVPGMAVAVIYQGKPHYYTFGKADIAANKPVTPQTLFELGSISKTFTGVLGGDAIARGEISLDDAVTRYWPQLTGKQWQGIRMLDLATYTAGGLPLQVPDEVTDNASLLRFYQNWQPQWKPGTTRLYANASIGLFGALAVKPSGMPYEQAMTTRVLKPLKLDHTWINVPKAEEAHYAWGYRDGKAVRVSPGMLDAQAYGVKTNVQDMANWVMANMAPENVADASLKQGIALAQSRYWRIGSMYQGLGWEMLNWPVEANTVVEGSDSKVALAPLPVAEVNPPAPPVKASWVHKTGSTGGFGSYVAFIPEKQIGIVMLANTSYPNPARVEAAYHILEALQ
TEM-1 beta-lactamase (Escherichia coli), sequence (P62593 whole entry, looked up): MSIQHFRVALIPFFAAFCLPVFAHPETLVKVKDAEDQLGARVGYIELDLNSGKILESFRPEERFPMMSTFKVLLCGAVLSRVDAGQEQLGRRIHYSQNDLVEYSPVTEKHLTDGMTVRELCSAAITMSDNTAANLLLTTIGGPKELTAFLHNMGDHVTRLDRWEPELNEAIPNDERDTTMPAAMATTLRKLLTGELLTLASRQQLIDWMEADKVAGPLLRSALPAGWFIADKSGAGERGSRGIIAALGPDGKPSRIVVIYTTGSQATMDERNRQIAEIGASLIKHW
Beta-lactamase (Pseudomonas aeruginosa (strain ATCC 15692 / PAO1 / 1C / PRS 101 / LMG12228)), sequence (P24735 27-397 limits assumed): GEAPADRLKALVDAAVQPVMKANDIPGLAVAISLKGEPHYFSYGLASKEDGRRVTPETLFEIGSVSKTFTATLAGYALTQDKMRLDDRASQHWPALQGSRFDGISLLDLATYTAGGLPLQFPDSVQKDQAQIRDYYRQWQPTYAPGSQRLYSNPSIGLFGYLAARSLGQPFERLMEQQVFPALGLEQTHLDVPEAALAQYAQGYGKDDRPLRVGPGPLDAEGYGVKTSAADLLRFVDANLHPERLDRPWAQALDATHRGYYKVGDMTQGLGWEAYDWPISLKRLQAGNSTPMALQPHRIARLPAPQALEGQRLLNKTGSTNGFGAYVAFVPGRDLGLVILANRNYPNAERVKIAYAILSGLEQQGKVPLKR

As a reminder, the inhibition is the change of the read-out against control, counted positive when it falls. Low readings indicate a response near the control, high ones a response far below the control. On to `Cc1nnc(SC2=C(C(=O)OC(c3ccccc3)c3ccccc3)N3C(=O)C[C@H]3S2)s1`, for which the inhibition amounted to 6% in [1]; 14% in test [2]; 8% in test [3]; 0% in [4]; 12% in test [5].

`Cn1nnnc1SC1=C(C(=O)OC(c2ccccc2)c2ccccc2)N2C(=O)C[C@H]2S1`: the inhibition in test [6] came out at 45%; in test [7] it was 19%; in test [8], 28%; in test [9], 2%; in test [10], 16%; in test [11] it was 10%.
